Measured values: patent US20100021895A1, “Vectors for Inducing Homozygous Mutations and Methods of Using Same” (priority 2006, published 2010)

System: mouse embryonic stem cell clones, each containing a neomycin resistance gene (Neo) inserted by the GTR1.3 gene trap retrovirus
Assay: Carcinogen-induced LOH: frequency of colony formation in 2.0 mg/ml G418
Type: cell-based
Details: for fold increase of frequency of colony formation: 2 mg/ml G418 0.5 mM MNU
Experimental: Carcinogen-induced LOH was measured in a panel of 53 mouse embryonic stem cell clones, each containing a neomycin resistance gene (Neo) inserted into a different cellular gene (FIG. 9) by the GTR1.3 gene trap retrovirus. Gene entrapment by GTR1.3 involves selection for inserted Neo sequences that can splice to the 3′ ends of cellular genes (Lin et al.,). The disrupted genes were identified by sequencing Neo-gene fusion transcripts and were localized on the mouse genome. Previous studies have shown that cells homozygous for GTR1.3-induced mutations can be selected from heterozygous cells simply by selecting for resistance to higher concentrations of G418, a method first shown to select for homozygous mutations induced by gene targeting (15). Mitotic recombination appears to be the preferred mechanism of spontaneous LOH involving Neo genes inserted in ES cells (17) and LOH involving other genes and cell types in vivo (12, 13). LOH doubles the number of Neo genes per cell and thus allows moderately resistant cells to acquire resistance to higher concentrations of G418. The frequencies of spontaneous LOH measured at the 53 different sites ranged from 1.3×10^−5 to 1.2×10^−4 (Table 3), similar to those reported for other inserted neomycin resistance genes (15, 17) in ES cells and for loci such as TK and APRT in other cell types (12, 13).
A variety of chemical agents were tested for their ability to enhance the frequencies at which mutant cells survive in 2.0 mg/ml G418. Methyl-nitrosurea (MNU) is an alkylating agent that produces a variety of mono-methylated DNA adducts, hydroxyurea (HU) stalls DNA replication complexes, doxorubicin interferes with DNA synthesis, methothrexate is a competitive inhibitor of dihydrofolate reductase but is not genotoxic, diepoxybutane and mitomycin C induce inter-strand DNA crosslinks, UV irradiation causes intra- and inter-strand pyrimidine dimmers, and ethidium bromide intercalates between DNA strands to damage DNA (For additional information about these agents see http://toxnet.nlm.nih.gov and http://lisntweb.swan.ac.uk/cmgt/index.htm). […] The fold-increase for MNU and HU ranged from 39-123 and 18-68, respectively (Table 3). The optimal concentrations of each agent to stimulate colony formation with minimal toxicity (<5% loss of cell viability) were determined in advance (FIG. 13). […] Each of these agents was tested two or more times on at least 25 entrapment lines.
Serially diluted cells were plated onto 150 mm plates containing drug-free media and allowed to attach overnight. Unattached cells were removed and media containing the indicated concentrations of methyl-nitrosourea, hydroxyurea, ethidium bromide, doxorubicin, methotrexate, diepoxybutane, or mitomycin C was put onto cells for 4 hours (or cells were exposed to ultraviolet light in the absence of media and allowed to recover in drug-free media for 4 hours). Cells were then rinsed twice with drug-free media and selection media containing 0.0, 0.3, or 2.0 mg/ml G418 was put onto cells. After 12 days of selection, the number of colonies surviving was counted and the frequency of colony formation was determined by dividing the number of colonies obtained from 2.0 mg/ml G418 selection to that obtained from parallel experiments with 0.3 mg/ml G418 selection. TK gene loss was assessed following selection in media containing 2 μg/ml gancyclovir.
Table 3. The frequency of colony formation in high concentrations of G418. The frequency of colony formation is listed for all 53 clones examined. Frequency was determined by dividing the number of colonies surviving 2.0 mg/ml G418 selection to the number surviving parallel experiments with 0.3 mg/ml G418 selection, and is the average of at least 3 independent experiments for each clone. Standard deviations, which ranged from 5 to 70% of the mean values, have been omitted for clarity. […]

Which results are given for CN(N=O)C(N)=O [MNU, methyl-nitrosourea]?
number of colonies surviving in high G418 (0.5 mM MNU or 0.25 mM HU (FIG. 10)): dramatically increased; fold-increase of colonies surviving in high G418, range over clones (0.5 mM MNU, Table 3 clones): 39-123 fold; fold increase of frequency of colony formation (clone b2p1-a5 (12C3)): (+61-fold); fold increase of frequency of colony formation (clone b2p1-a9 (2H1)): (+53-fold); fold increase of frequency of colony formation (clone b2p1-b4 (9E1)): (+53-fold); fold increase of frequency of colony formation (clone b2p1-b9 (4B1)): (+59-fold); fold increase of frequency of colony formation (clone b2p1-c6 (19A)): (+39-fold); fold increase of frequency of colony formation (clone b2p1-d3 (19C1)): (+41-fold); fold increase of frequency of colony formation (clone b2p1-d8 (4D2.3)): (+52-fold); fold increase of frequency of colony formation (clone b2p1-d9 (7E3)): (+75-fold); fold increase of frequency of colony formation (clone b2p1-d10 (9A1)): (+76-fold); fold increase of frequency of colony formation (clone b2p1-e3 (4D2.3)): (+54-fold); fold increase of frequency of colony formation (clone b2p1-e10 (19C1)): (+54-fold); fold increase of frequency of colony formation (clone b2p1-f3 (17E1.3)): (+51-fold); fold increase of frequency of colony formation (clone b2p1-f10 (3F2.1)): (+91-fold); fold increase of frequency of colony formation (clone b2p1-f12 (1H5)): (+77-fold); fold increase of frequency of colony formation (clone b2p1-h1 (7A2)): (+63-fold); fold increase of frequency of colony formation (clone b2p1-h5 (1H5)): (+75-fold); fold increase of frequency of colony formation (clone b2p1-h8 (6A3.3)): (+68-fold); fold increase of frequency of colony formation (clone b3p1-h1 (18E2)): (+55-fold); fold increase of frequency of colony formation (clone b3p3-a4 (4A5)): (+78-fold); fold increase of frequency of colony formation (clone b3p3-a9 (4A5)): (+49-fold); fold increase of frequency of colony formation (clone b3p3-b6 (3F1)): (+60-fold); fold increase of frequency of colony formation (clone b3p3-c8 (14A3)): (+73-fold); fold increase of frequency of colony formation (clone b3p3-c12 (5G2)): (+29-fold); fold increase of frequency of colony formation (clone b3p3-d4 (1C3)): (+43-fold); fold increase of frequency of colony formation (clone b3p3-d8 (1C2)): (+123-fold); fold increase of frequency of colony formation (clone b3p3-d9 (4E2)): (+89-fold); fold increase of frequency of colony formation (clone b3p3-g6 (10C2)): (+59-fold); fold increase of frequency of colony formation (clone b3p3-g10 (4E1)): (+58-fold); fold increase of frequency of colony formation (clone b3p3-h2 (19C1)): (+73-fold); fold increase of frequency of colony formation (clone b3p3-h4 (5E2)): (+70-fold); fold increase of frequency of colony formation (clone b3p3-h8 (19A)): (+105-fold); fold increase of frequency of colony formation (clone b3p4-a1 (4A4)): (+69-fold); fold increase of frequency of colony formation (clone b3p4-a5 (3B)): (+47-fold); fold increase of frequency of colony formation (clone b3p4-b1 (3A2)): (+45-fold); fold increase of frequency of colony formation (clone b3p4-b2 (11B1.3)): (+54-fold); fold increase of frequency of colony formation (clone b3p4-b8 (4C6)): (+63-fold); fold increase of frequency of colony formation (clone b3p4-b12 (3A1)): (+52-fold); fold increase of frequency of colony formation (clone b3p4-c1 (17B3)): (+69-fold); fold increase of frequency of colony formation (clone b3p4-c2 (8C3)): (+76-fold); fold increase of frequency of colony formation (clone b3p4-c9 (15F2)): (+39-fold); fold increase of frequency of colony formation (clone b3p4-c12 (17E2)): (+74-fold); fold increase of frequency of colony formation (clone b3p4-d10 (14E5)): (+88-fold); fold increase of frequency of colony formation (clone b3p4-d12 (1C3)): (+82-fold); fold increase of frequency of colony formation (clone b3p4-e1 (2G3)): (+65-fold); fold increase of frequency of colony formation (clone b3p4-e3 (15D3)): (+73-fold); fold increase of frequency of colony formation (clone b3p4-e7 (12C1)): (+43-fold); fold increase of frequency of colony formation (clone b3p4-f2 (4E1)): (+55-fold); fold increase of frequency of colony formation (clone b3p4-f6 (7E3)): (+48-fold); fold increase of frequency of colony formation (clone b3p4-f10 (8A4)): (+81-fold); fold increase of frequency of colony formation (clone b3p4-g3 (1C3)): (+81-fold); fold increase of frequency of colony formation (clone b3p4-g8 (10C1)): (+75-fold); fold increase of frequency of colony formation (clone b3p4-g9 (2C2)): (+65-fold); fold increase of frequency of colony formation (clone b3p4-h11 (8A1.1)): (+65-fold); survival of mutant ES cells in media containing 2.0 mg/ml G418 (ES cells heterozygous for Xrcc5 entrapment mutation, 4 hours with 0.5 mM methyl-nitrosourea, 0.25 mM hydroxyurea or 100 ng/ml diepoxybutane): enhances the survival; overall extent of LOH induced (single exposure to non-toxic levels): ~1 % of the genome
